Experimental data as given in PubChem BioAssay (NCI).
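All cell lines were grown in 96-well plates and treated with compound for 48 hours. TGI marks complete inhibition of growth.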

Assays:
Experiment in all cases: DTP human tumour cell line panel, 48 h
786-0 renal = tested on: 786-0 renal
A549 NSCLC = tested on: A549 NSCLC
ACHN renal = tested on: ACHN renal
CCRF-CEM leukemia = tested on: CCRF-CEM leukemia
COLO 205 colon = tested on: COLO 205 colon
DLD-1 colon = tested on: DLD-1 colon
DMS 273 small cell lung = tested on: DMS 273 small cell lung
EKVX NSCLC = tested on: EKVX NSCLC
HCC-2998 colon = tested on: HCC-2998 colon
HCT-116 colon = tested on: HCT-116 colon
HCT-15 colon = tested on: HCT-15 colon
HL-60(TB) leukemia = tested on: HL-60(TB) leukemia
HOP-62 NSCLC = tested on: HOP-62 NSCLC
HOP-92 NSCLC = tested on: HOP-92 NSCLC
HT29 colon = tested on: HT29 colon
IGROV1 ovarian = tested on: IGROV1 ovarian
K-562 leukemia = tested on: K-562 leukemia
KM12 colon = tested on: KM12 colon
KM20L2 colon = tested on: KM20L2 colon
LXFL 529 NSCLC = tested on: LXFL 529 NSCLC
M14 melanoma = tested on: M14 melanoma
M19-MEL melanoma = tested on: M19-MEL melanoma
MALME-3M melanoma = tested on: MALME-3M melanoma
MOLT-4 leukemia = tested on: MOLT-4 leukemia
NCI-H23 lung = tested on: NCI-H23 lung
NCI-H460 lung = tested on: NCI-H460 lung
NCI-H522 lung = tested on: NCI-H522 lung
OVCAR-3 ovarian = tested on: OVCAR-3 ovarian
OVCAR-4 ovarian = tested on: OVCAR-4 ovarian
OVCAR-5 ovarian = tested on: OVCAR-5 ovarian
OVCAR-8 ovarian = tested on: OVCAR-8 ovarian
RPMI-8226 leukemia = tested on: RPMI-8226 leukemia
RXF 393 renal = tested on: RXF 393 renal
RXF-631 renal = tested on: RXF-631 renal
SF-268 CNS = tested on: SF-268 CNS
SF-295 CNS = tested on: SF-295 CNS
SF-539 CNS = tested on: SF-539 CNS
SK-MEL-2 melanoma = tested on: SK-MEL-2 melanoma
SK-MEL-28 melanoma = tested on: SK-MEL-28 melanoma
SK-MEL-5 melanoma = tested on: SK-MEL-5 melanoma
SN12C renal = tested on: SN12C renal
SNB-19 CNS = tested on: SNB-19 CNS
SNB-75 CNS = tested on: SNB-75 CNS
SNB-78 CNS = tested on: SNB-78 CNS
SW-620 colon = tested on: SW-620 colon
TK-10 renal = tested on: TK-10 renal
U251 CNS = tested on: U251 CNS
UACC-257 melanoma = tested on: UACC-257 melanoma
UACC-62 melanoma = tested on: UACC-62 melanoma
UO-31 renal = tested on: UO-31 renal
XF 498 CNS = tested on: XF 498 CNS
CAKI-1 renal = tested on: CAKI-1 renal
LOX IMVI melanoma = tested on: LOX IMVI melanoma
NCI-H226 lung = tested on: NCI-H226 lung
SK-OV-3 ovarian = tested on: SK-OV-3 ovarian
DMS 114 small cell lung = tested on: DMS 114 small cell lung
HOP-18 NSCLC = tested on: HOP-18 NSCLC

`O=C1CCC(=O)N1CNc1cccc(NCN2C(=O)CCC2=O)c1` gave a TGI (786-0 renal) greater than 100 µM, a TGI (A549 NSCLC) greater than 100 µM and a TGI (ACHN renal) greater than 100 µM. It also gave a TGI (CCRF-CEM leukemia) greater than 100 µM, a TGI (COLO 205 colon) greater than 100 µM and a TGI (DLD-1 colon) greater than 100 µM. For the same compound, the TGI (DMS 273 small cell lung) was greater than 100 µM, the TGI (EKVX NSCLC) was greater than 100 µM and the TGI (HCC-2998 colon) was greater than 100 µM. For the same compound, the TGI (HCT-116 colon) was greater than 100 µM, the TGI (HCT-15 colon) was greater than 100 µM and the TGI (HL-60(TB) leukemia) was 49.8 µM. For the same compound, the TGI (HOP-62 NSCLC) was greater than 100 µM, the TGI (HOP-92 NSCLC) was greater than 100 µM and the TGI (HT29 colon) was greater than 100 µM. The TGI (IGROV1 ovarian) was greater than 100 µM, the TGI (K-562 leukemia) was greater than 100 µM and the TGI (KM12 colon) was greater than 100 µM. It also gave a TGI (KM20L2 colon) of 28.4 µM, a TGI (LXFL 529 NSCLC) greater than 100 µM and a TGI (M14 melanoma) greater than 100 µM. The TGI (M19-MEL melanoma) was greater than 100 µM, the TGI (MALME-3M melanoma) was greater than 100 µM and the TGI (MOLT-4 leukemia) was greater than 100 µM. For the same compound, the TGI (NCI-H23 lung) was greater than 100 µM, the TGI (NCI-H460 lung) was greater than 100 µM and the TGI (NCI-H522 lung) was greater than 100 µM. It also gave a TGI (OVCAR-3 ovarian) greater than 100 µM, a TGI (OVCAR-4 ovarian) greater than 100 µM and a TGI (OVCAR-5 ovarian) greater than 100 µM. The TGI (OVCAR-8 ovarian) was greater than 100 µM, the TGI (RPMI-8226 leukemia) was 46.1 µM and the TGI (RXF 393 renal) was greater than 100 µM. It also gave a TGI (RXF-631 renal) greater than 100 µM, a TGI (SF-268 CNS) greater than 100 µM and a TGI (SF-295 CNS) greater than 100 µM. It also gave a TGI (SF-539 CNS) greater than 100 µM, a TGI (SK-MEL-2 melanoma) greater than 100 µM and a TGI (SK-MEL-28 melanoma) greater than 100 µM. For the same compound, the TGI (SK-MEL-5 melanoma) was greater than 100 µM, the TGI (SN12C renal) was greater than 100 µM and the TGI (SNB-19 CNS) was greater than 100 µM. For the same compound, the TGI (SNB-75 CNS) was greater than 100 µM, the TGI (SNB-78 CNS) was greater than 100 µM and the TGI (SW-620 colon) was greater than 100 µM. It also gave a TGI (TK-10 renal) greater than 100 µM, a TGI (U251 CNS) greater than 100 µM and a TGI (UACC-257 melanoma) greater than 100 µM. It also gave a TGI (UACC-62 melanoma) greater than 100 µM, a TGI (UO-31 renal) greater than 100 µM and a TGI (XF 498 CNS) greater than 100 µM.

`COc1ccc(Nc2nc(C#N)c(N)s2)cc1` gave a TGI (786-0 renal) greater than 100 µM, a TGI (A549 NSCLC) greater than 100 µM and a TGI (ACHN renal) of 60.3 µM. The TGI (CAKI-1 renal) was greater than 100 µM, the TGI (COLO 205 colon) was greater than 100 µM and the TGI (DLD-1 colon) was greater than 100 µM. It also gave a TGI (DMS 273 small cell lung) greater than 100 µM, a TGI (HCT-116 colon) greater than 100 µM and a TGI (HCT-15 colon) greater than 100 µM. The TGI (HL-60(TB) leukemia) was 89.2 µM, the TGI (HOP-62 NSCLC) was greater than 100 µM and the TGI (HOP-92 NSCLC) was greater than 100 µM. It also gave a TGI (HT29 colon) greater than 100 µM, a TGI (IGROV1 ovarian) greater than 100 µM and a TGI (K-562 leukemia) greater than 100 µM. For the same compound, the TGI (KM12 colon) was greater than 100 µM, the TGI (KM20L2 colon) was greater than 100 µM and the TGI (LOX IMVI melanoma) was 56.1 µM. For the same compound, the TGI (LXFL 529 NSCLC) was greater than 100 µM, the TGI (M14 melanoma) was greater than 100 µM and the TGI (MALME-3M melanoma) was greater than 100 µM. It also gave a TGI (NCI-H226 lung) greater than 100 µM, a TGI (NCI-H23 lung) of 47.8 µM and a TGI (NCI-H460 lung) greater than 100 µM. It also gave a TGI (NCI-H522 lung) greater than 100 µM, a TGI (OVCAR-3 ovarian) greater than 100 µM and a TGI (OVCAR-4 ovarian) greater than 100 µM. The TGI (OVCAR-5 ovarian) was greater than 100 µM, the TGI (OVCAR-8 ovarian) was greater than 100 µM and the TGI (RPMI-8226 leukemia) was 77.8 µM. It also gave a TGI (RXF-631 renal) greater than 100 µM, a TGI (SF-268 CNS) greater than 100 µM and a TGI (SF-295 CNS) of 91.3 µM. The TGI (SF-539 CNS) was greater than 100 µM, the TGI (SK-MEL-2 melanoma) was greater than 100 µM and the TGI (SK-MEL-28 melanoma) was greater than 100 µM. The TGI (SK-OV-3 ovarian) was greater than 100 µM, the TGI (SN12C renal) was greater than 100 µM and the TGI (SNB-19 CNS) was greater than 100 µM. For the same compound, the TGI (SNB-75 CNS) was greater than 100 µM, the TGI (SNB-78 CNS) was greater than 100 µM and the TGI (SW-620 colon) was greater than 100 µM. The TGI (TK-10 renal) was 89.6 µM, the TGI (U251 CNS) was greater than 100 µM and the TGI (UACC-257 melanoma) was greater than 100 µM. For the same compound, the TGI (UACC-62 melanoma) was greater than 100 µM, the TGI (UO-31 renal) was greater than 100 µM and the TGI (XF 498 CNS) was 64 µM.

`O=S1[C@H](c2ccccc2)c2c(-c3ccccc3)sc(-c3ccccc3)c2[C@@H]1c1ccccc1` (some centres not stated) showed a TGI (786-0 renal) greater than 100 µM, a TGI (A549 NSCLC) greater than 100 µM and a TGI (ACHN renal) greater than 100 µM. It also gave a TGI (CAKI-1 renal) greater than 100 µM, a TGI (CCRF-CEM leukemia) greater than 100 µM and a TGI (COLO 205 colon) greater than 100 µM. It also gave a TGI (DLD-1 colon) greater than 100 µM, a TGI (DMS 114 small cell lung) greater than 100 µM and a TGI (DMS 273 small cell lung) greater than 100 µM. For the same compound, the TGI (EKVX NSCLC) was greater than 100 µM, the TGI (HCC-2998 colon) was greater than 100 µM and the TGI (HCT-15 colon) was greater than 100 µM. It also gave a TGI (HL-60(TB) leukemia) of 40.6 µM, a TGI (HOP-18 NSCLC) greater than 100 µM and a TGI (HOP-62 NSCLC) greater than 100 µM. It also gave a TGI (HOP-92 NSCLC) of 67.9 µM, a TGI (HT29 colon) greater than 100 µM and a TGI (IGROV1 ovarian) greater than 100 µM. It also gave a TGI (K-562 leukemia) greater than 100 µM, a TGI (KM12 colon) greater than 100 µM and a TGI (KM20L2 colon) greater than 100 µM. The TGI (LOX IMVI melanoma) was greater than 100 µM, the TGI (LXFL 529 NSCLC) was greater than 100 µM and the TGI (M14 melanoma) was greater than 100 µM. It also gave a TGI (M19-MEL melanoma) greater than 100 µM, a TGI (MALME-3M melanoma) greater than 100 µM and a TGI (MOLT-4 leukemia) greater than 100 µM. The TGI (NCI-H23 lung) was greater than 100 µM, the TGI (NCI-H460 lung) was greater than 100 µM and the TGI (NCI-H522 lung) was 27.2 µM. It also gave a TGI (OVCAR-3 ovarian) greater than 100 µM, a TGI (OVCAR-4 ovarian) greater than 100 µM and a TGI (OVCAR-5 ovarian) greater than 100 µM. For the same compound, the TGI (OVCAR-8 ovarian) was greater than 100 µM, the TGI (RPMI-8226 leukemia) was greater than 100 µM and the TGI (RXF 393 renal) was greater than 100 µM. The TGI (RXF-631 renal) was greater than 100 µM, the TGI (SF-268 CNS) was greater than 100 µM and the TGI (SF-295 CNS) was greater than 100 µM. For the same compound, the TGI (SF-539 CNS) was greater than 100 µM, the TGI (SK-MEL-2 melanoma) was greater than 100 µM and the TGI (SK-MEL-28 melanoma) was greater than 100 µM. It also gave a TGI (SK-MEL-5 melanoma) greater than 100 µM, a TGI (SK-OV-3 ovarian) greater than 100 µM and a TGI (SN12C renal) greater than 100 µM. The TGI (SNB-19 CNS) was greater than 100 µM, the TGI (SNB-75 CNS) was 87.9 µM and the TGI (SW-620 colon) was greater than 100 µM. For the same compound, the TGI (TK-10 renal) was greater than 100 µM, the TGI (U251 CNS) was greater than 100 µM and the TGI (UACC-257 melanoma) was greater than 100 µM. The TGI (UACC-62 melanoma) was greater than 100 µM and the TGI (UO-31 renal) was greater than 100 µM.
